Assay results: ChEMBL document CHEMBL3046272, “Tolerance of two Bifora radians Bieb populations to ALS inhibitors in winter wheat” (2012)
Active and inactive are the calls of the source. No cut-off for these calls is given here.

How the values were obtained:
Bifora radians [1] = assay: Herbicidal activity against ALS-inhibiting herbicide-resistant six to eight-leaf stage Bifora radians infested wheat field at ED90 applied by spraying relative to ALS-inhibiting herbicide-sensitive Bifora radians; type: functional
Bifora radians [2] = assay: Herbicidal activity against ALS-inhibiting herbicide-resistant six to eight-leaf stage Bifora radians infested wheat field at ED50 applied by spraying relative to ALS-inhibiting herbicide-sensitive Bifora radians; type: functional
Bifora radians [3] = assay: Herbicidal activity against ALS-inhibiting herbicide-resistant four to six-leaf stage Bifora radians infested wheat field at ED50 applied by spraying relative to ALS-inhibiting herbicide-sensitive Bifora radians; type: functional
Bifora radians [4] = assay: Herbicidal activity against ALS-inhibiting herbicide-resistant two to four-leaf stage Bifora radians infested wheat field at ED50 applied by spraying relative to ALS-inhibiting herbicide-sensitive Bifora radians; type: functional
Bifora radians [5] = assay: Herbicidal activity against ALS-inhibiting herbicide-resistant four to six-leaf stage Bifora radians infested wheat field at ED90 applied by spraying relative to ALS-inhibiting herbicide-sensitive Bifora radians; type: functional
Bifora radians [6] = assay: Herbicidal activity against ALS-inhibiting herbicide-resistant two to four-leaf stage Bifora radians infested wheat field at ED90 applied by spraying relative to ALS-inhibiting herbicide-sensitive Bifora radians; type: functional
Bifora radians [7] = assay: Herbicidal activity against ALS-inhibiting herbicide-resistant six to eight-leaf stage Bifora radians infested wheat field at 15 to 20 g/ha applied by spraying measured after 14 to 56 days post treatment; type: functional, organism-based
Bifora radians [8] = assay: Herbicidal activity against ALS-inhibiting herbicide-resistant two to four-leaf stage Bifora radians infested wheat field at 15 to 20 g/ha applied by spraying measured after 14 to 56 days post treatment; type: functional, organism-based
Bifora radians [9] = assay: Herbicidal activity against ALS-inhibiting herbicide-resistant four to six-leaf stage Bifora radians infested wheat field at 15 to 20 g/ha applied by spraying measured after 14 to 56 days post treatment; type: functional, organism-based

## COC(=O)c1ccccc1S(=O)(=O)NC(=O)N(C)c1nc(C)nc(OC)n1 [TRIBENURON METHYL]
Bifora radians [1]
  Ratio: 2.4
Bifora radians [2]
  Ratio: 2
Bifora radians [3]
  Ratio: 1.8
Bifora radians [4]
  Ratio: 1.7
Bifora radians [5]
  Ratio: 1.9
Bifora radians [6]
  Ratio: 1.8

## COc1nc(C)nc(NC(=O)NS(=O)(=O)c2ccccc2Cl)n1 [CHLORSULFURON]
Bifora radians [7]
  Activity: Active
Bifora radians [1]
  Ratio: 2
Bifora radians [8]
  Activity: Active
Bifora radians [2]
  Ratio: 2.3
Bifora radians [3]
  Ratio: 1.8
Bifora radians [4]
  Ratio: 1.9
Bifora radians [5]
  Ratio: 1.6
Bifora radians [9]
  Activity: Active
Bifora radians [6]
  Ratio: 1.6
